Experimental data published in patent US20180120298A1, “HEPATOCYTE CULTURE DEVICE CAPABLE OF ENHANCING ACCUMULATION AND EXCRETION OF HEPATIC METABOLITE IN AND INTO BILE CANALICULUS-LIKE STRUCTURE, AND METHOD FOR EVALUATING CANDIDATE COMPOUND SENSITIVE TO EXCRETION INTO BILE OR BLOOD AND HEPATIC METABOLITE OF SAID CANDIDATE COMPOUND USING SAID HEPATOCYTE …” (National Agriculture and Food Reserach Organization, priority 2015, published 2018).
Where two headings read alike, the source gives them in different places.

Key:
[1] = tested on: HepG2 cells
Method: (§1) HepG2 cells (purchased from RIKEN BioResource Center, RCB1648, Lot.004) suspended in 0.5 mL DMEM culture medium containing 10% FBS, 20 mM HEPES, 100 units/mL penicillin, and 100 μg/mL streptomycin were seeded at 5×10^4 cells/cm^2 and cultured for 2 days in a hydrogel membrane chamber (ad-MED Vitrigel (registered trademark) manufactured by KANTO KAGAKU) to which a detachable silicone-coated PET film is attached. Thereafter, the film on a bottom surface of the hydrogel membrane chamber was detached, the chamber was mounted in a well of a 12-well plate, and culture was carried out for 1 day in a state where the bottom surface is in contact with air (refer to FIG. 2). The 0.5 mL culture medium was exchanged daily after seeding.
(§2) [1] After removing the culture medium of the hydrogel membrane chamber containing the activated HepG2 cells, 0.5 mL of the culture medium containing 250 vg/mL Fluorescein diacetate (FD) was added, and then culture was carried out at 37° C. for 1 hour in a CO2 incubator (refer to FIG. 4 and Observation A of FIG. 5).
(§3) [2] After removing the culture medium containing the FD remaining in the chamber, washing was performed twice with 0.5 mL of Hank's Balanced Salt Solution (Hank's balanced salt solution: HBSS), 0.5 mL of the culture medium was added to the chamber, and then culture was carried out at 37° C. for 1 hour in a CO2 incubator (refer to Observation B of FIG. 5).
(§4) [1] HepG2 cells were seeded to prepare 12 sets of activated hydrogel membrane chambers. For 6 sets, FD was added to the culture medium and cultured by the same procedure as in [1] to [2] of Example 1.
(§5) [2] Subsequently, after removing the culture medium remaining in the chamber, 0.5 mL of the culture medium was newly added to the chamber. Subsequently, each of three sets was cultured at 37° C. for 1 hour in a CO2 incubator under the following four conditions (refer to FIG. 6).
(§6) i) A set in which HepG2 cells were co-cultured with TFK-1 cells (FD added) ii) A set in which HepG2 cells were co-cultured with TFK-1 cells (FD not added) iii) A set in which HepG2 cells were homo-cultured in a dish containing only a culture medium (FD added) iv) A set in which HepG2 cells were homo-cultured in a dish containing only a culture medium (FD not added)
(§7) [3] The culture medium in the chamber and the dish of i) to iv) was recovered and the fluorescence intensities were measured.
(§8) [2] With respect to the 36 sets of hydrogel membrane chambers in which the cells were seeded and cultured in [1], the culture medium remaining in the chamber was removed, and then 0.5 mL of the culture medium was newly added to the chamber. Subsequently, each of three sets was cultured at 37° C. in a CO2 incubator with culture time of 3 minutes, 30 minutes, and 60 minutes (for each 12 sets) under the following four conditions i) to iv) the same as those of Example 2.
[3] The culture media in the dishes and in the chambers of i) to iv) were recovered 3 minutes, 30 minutes, and 60 minutes after the start of culture, and the fluorescence intensities were measured. Measurements were made three times respectively, and average values are shown in Table 3 (culture time 3 minutes), Table 4 (culture time 30 minutes), and Table 5 (culture time 60 minutes). In FIG. 7, the term “Co-culture” means the set in which HepG2 cells were co-cultured with TFK-1 cells, and the term “Homo-culture” means the set in which HepG2 cells were homo-cultured in the dish containing the culture medium.
as §8, with “to the 48 sets of” for “to the 36 sets of”, “30 minutes, 60 minutes, and 180” for “30 minutes, and 60”, “minutes, and 180 minutes (for” for “minutes, and 60 minutes (for”

[2] = tested on: HepG2 cells co-cultured with TFK-1 cells; assay: Fluorescein excretion into chamber and dish, activated HepG2 cells in hydrogel membrane chamber co-cultured with TFK-1 cells; format: in vitro ADME, human; settings: Example 4
[3] = tested on: HepG2 cells; assay: Fluorescence microscope observation of Fluorescein in cytoplasm and bile canaliculus-like structure, homo-culture; format: in vitro ADME
Method: (§9) [1] First, HepG2 cells were seeded to prepare 2 sets of activated hydrogel membrane chambers.

[4] = tested on: HepG2 cells co-cultured with Normal Human Dermal Fibroblasts (NHDFs); assay: Fluorescein excretion into chamber and dish, activated HepG2 cells co-cultured with NHDFs; format: in vitro ADME; settings: Example 6; culture time 60 minutes
Method: [1] First, HepG2 cells were seeded to prepare 18 sets of activated hydrogel membrane chambers.

[5] = tested on: HepG2 cells co-cultured with TFK-1 cells; assay: Fluorescein excretion into chamber and dish, activated HepG2 cells in hydrogel membrane chamber co-cultured with TFK-1 cells; format: in vitro ADME, human
Method: as §1, §2, §3
[3] Subsequently, after removing the culture medium remaining in the chamber, 0.5 mL of the culture medium was newly added to the chamber. Furthermore, TFK-1 cells (purchased from RIKEN BioResource Center, RCB2537, Lot.002) suspended in 2.0 mL of RPMI 1640 culture medium containing 10% FBS, 100 units/mL penicillin, and 100 μg/mL streptomycin were seeded at 7×10^4 cells/cm^2 in a dish having a diameter of 35 mm and cultured for 3 days, and therefore, monolayered cells were prepared in advance. After removing the culture medium in the dish, 0.5 mL of the culture medium for HepG2 cells was added thereto. The chamber was mounted on the monolayer of TFK-1 cells in the dish having a diameter of 35 mm, and then co-culture was carried out at 37° C. for 1 hour in a CO2 incubator (refer to Observation C of FIG. 5).
[4] The fluorescence intensities of Fluorescein in the culture medium in the chamber and in the dish were measured. In Table 1, FD (−) is a value measured as a background value using a chamber having HepG2 cells cultured without adding FD.
as §4, §5, §6, §7
[2] […]

[6] = tested on: HepG2 cells co-cultured with TFK-1 cells; assay: Fluorescence microscope observation of Fluorescein in cytoplasm and bile canaliculus-like structure, co-culture with TFK-1 cells; format: in vitro ADME, human
Method: [3] […] After removing the culture medium in the dish, 0.5 mL of the culture medium for HepG2 cells was added thereto.
as §9

Q: How did the “rate of the fluorescence intensities of Fluorescein excreted into the dish (lower side) over time” value (from here on “rate … (lower side) over time”) [1] turn out when `O=C1OC2(c3ccc(O)cc3Oc3cc(O)ccc32)c2ccccc21` [Fluorescein] was run?
A: Its value is “decreased over time”.

Q: What about the “culture time beyond which total excreted Fluorescein fluorescence becomes almost a plateau state” value ([1]; human, 250 vg/mL) of the same molecule?
A: The value was “exceeds 30 minutes”.

Q: What about the “total of the fluorescence intensities of Fluorescein excreted into the chamber and into the dish” value ([1]; human, 1 h, 250 vg/mL) of the same molecule?
A: The value was 609.

Q: What about the “total of the fluorescence intensities of excreted Fluorescein, co-culture with TFK-1 cells compared with homo-culture” value ([2]; at any time of the culture time (3 to 180 minutes)) of the same molecule?
A: Its value is “larger”.

Q: And the “culture time beyond which total excreted Fluorescein fluorescence becomes almost a plateau state” value ([2]; co-culture with TFK-1 cells)?
A: The value was “exceeds 60 minutes”.

Q: What about the “rate … (lower side) over time” value ([2]; co-culture with TFK-1 cells) of the same molecule?
A: Its value is “increased”.

Q: What about the “amount of Fluorescein excreted into the dish (lower side) larger in co-culture with TFK-1 cells than in homo-culture (rate of excretion to the lower side)” value ([2]; culture time 180 minutes) of the same molecule?
A: The value was 36%.

Q: What about the “time needed to reduce the amount of Fluorescein accumulated in the bile canaliculus-like structure” value ([3]; Example 5) of the same molecule?
A: The value was ≥ 1 days.

Q: What about the “reduction in the green fluorescence of Fluorescein” value (from here on “reduction in the green fluorescence”) ([3]; Example 5, after 1 hour of excretion) of the same molecule?
A: Its value is “not noticeable”.

Q: What about the “reduction in the green fluorescence” value ([3]; Example 5, after 3 hours of excretion) of the same molecule?
A: The value was “significantly noticeable”.

Q: And the “green fluorescence of Fluorescein” value ([3]; Example 5, after 23 hours of excretion)?
A: The value was “fluorescence in the bile canaliculus-like structure remained”.

Q: What about the “amount of Fluorescein excreted into the dish smaller in co-culture with NHDFs than in co-culture with TFK-1 cells” value [4] of the same molecule?
A: Its value is 54%.

Q: What about the “total of the fluorescence intensities of Fluorescein excreted into chamber and dish, co-culture with NHDFs compared with homo-culture” value [4] of the same molecule?
A: Its value is “almost the same”.

Q: And the “amount of Fluorescein excreted into the dish larger in co-culture with TFK-1 cells than in homo-culture (rate of excretion to the lower side)” value ([5]; Example 2, 1 hour)?
A: Its value is 4%.

Q: And the “increase of the total amount of excreted Fluorescein, co-culture with TFK-1 cells vs homo-culture” value ([5]; Example 2, 1 hour)?
A: The value was “about 26%”.

Q: And the “total of the fluorescence intensities of Fluorescein excreted into the chamber and into the dish” value ([5]; Example 2, co-cultured with TFK-1 cells, 1 hour)?
A: The value was 770.

Q: What about the “rate … (lower side) over time” value ([5]; Example 3, co-culture with TFK-1 cells) of the same molecule?
A: The value was “increased”.

Q: What about the “total of the fluorescence intensities of excreted Fluorescein, co-culture with TFK-1 cells compared with homo-culture” value ([5]; Example 3, culture time 3, 30 and 60 minutes) of the same molecule?
A: The value was “larger”.

Q: What about the “Fluorescein accumulated in the bile canaliculus-like structure after co-culturing with TFK-1 cells” value ([6]; Example 1, Observations B and C of FIG. 5, co-culture 1 hour) of the same molecule?
A: The value was “decreased”.

Q: What about the “time within which reduction in the amount of Fluorescein accumulated in the bile canaliculus-like structure was confirmed” value ([6]; Example 5, co-culture with TFK-1 cells) of the same molecule?
A: Its value is ≤ 1 h.

Q: What about the “reduction in the green fluorescence” value ([6]; Example 5, co-culture, after 1 hour of excretion) of the same molecule?
A: The value was “significantly noticeable”.

Q: What about the “green fluorescence of Fluorescein” value ([6]; Example 5, co-culture, after 3 hours of excretion) of the same molecule?
A: Its value is “not possible to confirm”.

Q: And the “green fluorescence of Fluorescein” value ([6]; Example 5, co-culture, after 23 hours of excretion)?
A: Its value is “not possible to confirm”.

Q: What does the source list for `CC(=O)Oc1ccc2c(c1)Oc1cc(OC(C)=O)ccc1C21OC(=O)c2ccccc21` [FD, Fluorescein diacetate]?
A: Average value of set, in chamber ([1]; human, 3 min, 250 vg/mL): 507; FD(+)-FD(−) in chamber as percentage of total excreted into chamber and dish ([1]; human, 30 min, 250 vg/mL): (50%); FD(+)-FD(−) in dish as percentage of total excreted into chamber and dish ([1]; human, 30 min, 250 vg/mL): (50%); Average value of set, in chamber ([1]; human, 1 h, 250 vg/mL): 1145; Average value of set, in dish ([1]; human, 1 h, 250 vg/mL): 645; FD(+)-FD(−) in chamber as percentage of total excreted into chamber and dish ([1]; human, 1 h, 250 vg/mL): (90%); FD(+)-FD(−) in dish as percentage of total excreted into chamber and dish ([1]; human, 1 h, 250 vg/mL): (10%); FD(+)-FD(−), in chamber ([1]; human, 1 h, 250 vg/mL): 549; FD(+)-FD(−), in dish ([1]; human, 1 h, 250 vg/mL): 60; Average value of set, in chamber ([1]; human, 180 min, 250 vg/mL): 579; Average value of set, in dish ([1]; human, 180 min, 250 vg/mL): 515; FD(+)-FD(−) in chamber as percentage of total excreted into chamber and dish ([1]; human, 180 min, 250 vg/mL): (71%); FD(+)-FD(−) in dish as percentage of total excreted into chamber and dish ([1]; human, 180 min, 250 vg/mL): (29%); FD(+)-FD(−), in chamber ([1]; human, 180 min, 250 vg/mL): 88; FD(+)-FD(−), in dish ([1]; human, 180 min, 250 vg/mL): 36
